One data set addresses Human TGFβR-1 kinase (Homo sapiens (Human), UniProt P36897). Briefly: In vitro enzyme assay: inhibition of TGFβR-1 kinase activity (ADP-Glo). The class given is biochemical. The procedure:
In Vitro Enzyme Assay: Inhibition of TGFβR-1Kinase Activity
Human TGFβl R-1 inhibition experiments were carried out in a white 384-microplate low flange (Corning 3572) with ADP-Glo kinase Assay Kit (Promega V9101) and TGβR-1 Kinase Enzyme System (Promega V4092). […] The reaction mixture was incubated in gentle shaking for 120 min at RT, after incubation of 10 μL of ADP-Glo Reagent was added and incubated in gentle shaking for 40 min at RT. 20 μL of Kinase Detection Reagent was added and plate was incubated in gentle shaking for 30 min at RT. Luminiscence (1000 ms) was measured in Perkin Elmer EnSpire Multimode plate reader.

Another data set concerns the target TGF-beta kinase (ALK-5) (Homo sapiens (Human), UniProt P36897). The data set is described as follows: Determination of the intracellular TGF-beta kinase activity (ALK-5), p-SMAD3 AlphaLISA in A549 cells. The class given is cell-based. The following applies: A549 cell line. On the procedure:
Determination of the Intracellular TGF-beta Kinase Activity (ALK-5)
The experiments were carried out in A549 cell line. 30000 cells were seeded in 200 μl of culture medium (Sigma D6046) supplemented with L-Glutamine (Sigma G7513), Penicillin/Streptomycin (Invitrogen 11058) and FBS (Sigma F9665) on a 96 wells microplate (Becton Dickinson 353072). After 16 hours medium waschanged to serum free medium.

Data set [1] is described as follows: Plasma pharmacokinetic assay, single oral administration. The format is in vivo, male Sprague Dawley rats. The note with it: male, Sprague-Dawley, po; rat, P.O., 5 mg/kg, plasma. On the procedure:
Plasma Pharmacokinetic Assay
The objective of this study was to investigate the plasma pharmacokinetics of some compounds of the present invention in male Sprague Dawley rats following a single oral administration. Three rats per compound were used in this study. Animals were administered with suspension formulation of each compound in 0.5% Tween-80 and 99.5% NaCMC (0.5% w/v in RO Water) by oral route at 5 mg/kg. The blood samples were collected from set of three rats at each time point in labelled micro centrifuge tube containing K2EDTA solution as anticoagulant at 0.25, 0.5, 1, 2, 4, 6, 8, 12 and 24 hr (p.o.). Plasma samples were separated by centrifugation of whole blood and stored below −70±10° C. until bioanalysis. All samples were processed for analysis by protein precipitation using acetonitrile and analysed with fit-for-purpose LC-MS/MS method (LLOQ=1.01 ng/mL). Pharmacokinetic parameters were calculated using the non-compartmental analysis tool of Phoenix WinNonlin® (Version 7.0).

Data set [2] in a line: Identification study of metabolite. The format is in vitro ADME. From the text: In an identification study of metabolite was identified Compound A. Said compound is 2-(3-(6-methylpyridin-2-yl)-4-(quinolin-4-yl)-1H-pyrazol-1-yl)acetic acid and has the following formula: […]
Compound A was identified as the major metabolite of examples 9, 15, 20, 22, 24 and 26, among others.

Data set [3] is described as follows: Metabolic stability assay, rat microsomes. The format is in vitro ADME. The procedure:
(§1) Metabolic Stability Assay
(§2) Human and rat recombinant microsomes from Tebu-Xenotech were employed in the assay. They content 0.5 mg/ml of protein. The following quantities were added to each well of a 96-well microplate.
(§3) Plates were incubated at 37° C. and 75 μL samples were taken at 0, 10, 20, 40 and 60 minutes. Samples were transferred to a microplate and 75 μl Acetonitrile were added for inactivating the microsomes, and 30 μl of H2O for improving the chromatographic conditions and kept at 4° C. When all the samples were taken the plate was centrifuged at […] for 30 min at 15° C. Supernatant was taken and injected in the UPLC-MS/MS.
(§4) Stationary phase: Reverse phase Acquity UPLC® BEH C18 1.7 μm (2.1 mm×50 mm) (Waters). Mobile phase: A: 0.1% formic; B:acetonitrile+0.1% formic acid. Flow: 0.6 ml/min. The chromatographic equipment employed was an UPLC QSM Waters Acquity. Compound concentrations were calculated from the UV peak areas. The response was linear in the range between 10 ng/ml and 0.3125 ng/ml. Metabolic stability was calculated from the logarithm of the remaining compound at each of the times evaluated.
(§5) The data will be fitted to the one phase exponential decay equation using GraphPad Prism® software. The half-life (t1/2) generated by the software will be reported. Intrinsic clearance will be calculated using the formula where, k=decay rate constant (min^−1).

Data set [4] is described as follows: Metabolic stability assay, human microsomes. The class given is in vitro ADME. On the procedure:
as §1, §2, §3, §4, §5

Where [5] appears, read: TGFβR-1 kinase, 50 μM ATP, read-out: IC50 range.
Where [6] appears, read: TGF-β2 activated, p-SMAD3, read-out: IC50 range.

Structures can show the parent of a compound that is named as a salt. Where two headings read alike, the source gives them in different places.

Chain of Human TGFβR-1 kinase (P36897 34-503): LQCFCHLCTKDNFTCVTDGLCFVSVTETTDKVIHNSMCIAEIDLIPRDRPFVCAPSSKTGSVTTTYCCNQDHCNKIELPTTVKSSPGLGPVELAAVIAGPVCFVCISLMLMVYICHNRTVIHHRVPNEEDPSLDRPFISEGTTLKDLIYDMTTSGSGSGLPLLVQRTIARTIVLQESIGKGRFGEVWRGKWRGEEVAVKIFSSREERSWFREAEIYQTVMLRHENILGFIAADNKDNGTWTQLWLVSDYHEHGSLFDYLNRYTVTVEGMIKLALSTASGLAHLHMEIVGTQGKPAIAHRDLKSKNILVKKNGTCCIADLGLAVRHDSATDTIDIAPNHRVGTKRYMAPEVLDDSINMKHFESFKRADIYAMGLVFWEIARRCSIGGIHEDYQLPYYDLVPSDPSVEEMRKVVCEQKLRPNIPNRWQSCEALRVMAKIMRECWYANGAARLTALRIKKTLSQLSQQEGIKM
Chain of TGF-beta kinase (ALK-5) (P36897 34-503): as above

Take `Cc1cccc(-c2nn(CC(=O)O)cc2-c2ccnc3ccccc23)n1` [Compound A, 2-(3-(6-methylpyridin-2-yl)-4-(quinolin-4-yl)-1H-pyrazol-1-yl)acetic acid]: the half-inhibitory concentration (IC50) at Human TGFβR-1 kinase (enzyme assay, read-out: IC50 against TGFβR-1) was > 800 nM; at TGF-beta kinase (ALK-5) (read-out: IC50 intracellular TGF-beta kinase activity (ALK-5)) it was > 5000 nM.

For `O=C(Cn1cc(-c2ccnc3ccccc23)c(-c2ccccn2)n1)NCc1ccccc1` [Example 1, N-benzyl-2-(3-(pyridin-2-yl)-4-(quinolin-4-yl)-1H-pyrazol-1-yl)acetamide], the IC50 on Human TGFβR-1 kinase (setting [5]) is < 100 nM; at TGF-beta kinase (ALK-5) (setting [6]), 100 to 500 nM.

Take `O=C(Cn1cc(-c2ccnc3ccccc23)c(-c2ccccn2)n1)NCc1ccc(F)cc1` [Example 2, N-(4-fluorobenzyl)-2-(3-(pyridin-2-yl)-4-(quinolin-4-yl)-1H-pyrazol-1-yl)acetamide]: the half-maximal inhibitory concentration (IC50) at Human TGFβR-1 kinase (setting [5]) fell in the range of 100 to 800 nM.

`O=C(Cn1cc(-c2ccnc3ccccc23)c(-c2ccccn2)n1)NCc1ccc(Cl)cc1` [Example 3, N-(4-chlorobenzyl)-2-(3-(pyridin-2-yl)-4-(quinolin-4-yl)-1H-pyrazol-1-yl)acetamide]: at Human TGFβR-1 kinase (setting [5]), the concentration for half-maximal inhibition (IC50) lay in the range of 100 to 800 nM.

Regarding `O=C(Cn1cc(-c2ccnc3ccccc23)c(-c2ccccn2)n1)NCc1ccc(Br)cc1` [Example 4, N-(4-bromobenzyl)-2-(3-(pyridin-2-yl)-4-(quinolin-4-yl)-1H-pyrazol-1-yl)acetamide], the IC50 at Human TGFβR-1 kinase (setting [5]) lay in the range of 100 to 800 nM.

Turning to `Cc1ccc(CNC(=O)Cn2cc(-c3ccnc4ccccc34)c(-c3ccccn3)n2)cc1` [Example 7, N-(4-methylbenzyl)-2-(3-(pyridin-2-yl)-4-(quinolin-4-yl)-1H-pyrazol-1-yl)acetamide], the IC50 on Human TGFβR-1 kinase (setting [5]) is 100 to 800 nM.

`Cc1cccc(-c2nn(CC(=O)NCc3ccccc3)cc2-c2ccnc3ccccc23)n1` [Example 9, N-benzyl-2-(3-(6-methylpyridin-2-yl)-4-(quinolin-4-yl)-1H-pyrazol-1-yl)acetamide]: on Human TGFβR-1 kinase (setting [5]), the half-inhibitory concentration (IC50) is < 100 nM. In addition, the IC50 at TGF-beta kinase (ALK-5) (setting [6]) is < 100 nM. In addition, in data set [1], the total exposure AUC(0-inf) was 27.7 ng·h/mL, the AUC(0-t) turned out to be 27 ng·h/mL, the peak level (Cmax) was 62.8 ng/mL and the Tmax was 15 min. Further, the Major metabolite identified result in data set [2] is given as “Compound A”.

Turning to `Cc1cccc(CNC(=O)Cn2cc(-c3ccnc4ccccc34)c(-c3ccccn3)n2)c1` [Example 10, N-(3-methylbenzyl)-2-(3-(pyridin-2-yl)-4-(quinolin-4-yl)-1H-pyrazol-1-yl)acetamide], at Human TGFβR-1 kinase (setting [5]), the half-inhibitory concentration (IC50) was in the range of 100 to 800 nM.

As to `O=C(Cn1cc(-c2ccnc3ccccc23)c(-c2ccccn2)n1)NCc1cccc(F)c1` [Example 11, N-(3-fluorobenzyl)-2-(3-(pyridin-2-yl)-4-(quinolin-4-yl)-1H-pyrazol-1-yl)acetamide], at Human TGFβR-1 kinase (setting [5]), the half-inhibitory concentration (IC50) was in the range of 100 to 800 nM.

`O=C(Cn1cc(-c2ccnc3ccccc23)c(-c2ccccn2)n1)NCc1cccc(Cl)c1` [Example 12, N-(3-chlorobenzyl)-2-(3-(pyridin-2-yl)-4-(quinolin-4-yl)-1H-pyrazol-1-yl)acetamide]: the IC50 at Human TGFβR-1 kinase (setting [5]) was in the range of 100 to 800 nM.

`N#Cc1cccc(CNC(=O)Cn2cc(-c3ccnc4ccccc34)c(-c3ccccn3)n2)c1` [Example 13, N-(3-cyanobenzyl)-2-(3-(pyridin-2-yl)-4-(quinolin-4-yl)-1H-pyrazol-1-yl)acetamide]: the IC50 on Human TGFβR-1 kinase (setting [5]) lay in the range of 100 to 800 nM.

For `Cc1ccccc1CNC(=O)Cn1cc(-c2ccnc3ccccc23)c(-c2ccccn2)n1` [Example 14, N-(2-methylbenzyl)-2-(3-(pyridin-2-yl)-4-(quinolin-4-yl)-1H-pyrazol-1-yl)acetamide], the IC50 on Human TGFβR-1 kinase (setting [5]) was in the range of 100 to 800 nM.

As to `Cc1cccc(-c2nn(CC(=O)NCc3ccccc3C)cc2-c2ccnc3ccccc23)n1` [Example 15, N-(2-methylbenzyl)-2-(3-(6-methylpyridin-2-yl)-4-(quinolin-4-yl)-1H-pyrazol-1-yl)acetamide], at Human TGFβR-1 kinase (setting [5]), the concentration for half-maximal inhibition (IC50) is < 100 nM. Further, the IC50 on TGF-beta kinase (ALK-5) (setting [6]) fell in the range of 100 to 500 nM. Besides, in data set [1], the AUC(0-inf) came to 39.4 ng·h/mL, the AUC(0-t) was 35.1 ng·h/mL, the concentration peaked (Cmax) at 75.8 ng/mL and the Tmax was determined as 15 min. For the same compound, the Major metabolite identified result in data set [2] was “Compound A”.

`O=C(Cn1cc(-c2ccnc3ccccc23)c(-c2ccccn2)n1)NCc1ccccc1F` [Example 16, N-(2-fluorobenzyl)-2-(3-(pyridin-2-yl)-4-(quinolin-4-yl)-1H-pyrazol-1-yl)acetamide]: at Human TGFβR-1 kinase (setting [5]), the IC50 lay in the range of 100 to 800 nM.

As to `Cc1cccc(-c2nn(CC(=O)NCc3ccccc3F)cc2-c2ccnc3ccccc23)n1` [Example 17, N-(2-fluorobenzyl)-2-(3-(6-methylpyridin-2-yl)-4-(quinolin-4-yl)-1H-pyrazol-1-yl)acetamide], the IC50 on Human TGFβR-1 kinase (setting [5]) lay within 100 to 800 nM.

Regarding `CCc1cccc(-c2nn(CC(=O)NCc3ccccc3)cc2-c2ccnc3ccccc23)n1` [Example 18, N-benzyl-2-(3-(6-ethylpyridin-2-yl)-4-(quinolin-4-yl)-1H-pyrazol-1-yl)acetamide], the IC50 at Human TGFβR-1 kinase (setting [5]) is < 100 nM.

Regarding `CCc1cccc(-c2nn(CC(=O)NCc3ccccc3C)cc2-c2ccnc3ccccc23)n1` [Example 19, 2-(3-(6-ethylpyridin-2-yl)-4-(quinolin-4-yl)-1H-pyrazol-1-yl)-N-(2-methylbenzyl)acetamide], the IC50 on Human TGFβR-1 kinase (setting [5]) is < 100 nM; on TGF-beta kinase (ALK-5) (setting [6]), 100 to 500 nM.

Take `O=C(Cn1cc(-c2ccnc3ccccc23)c(-c2ccccn2)n1)NCc1ccccc1Cl` [Example 21, N-(2-chlorobenzyl)-2-(3-(pyridin-2-yl)-4-(quinolin-4-yl)-1H-pyrazol-1-yl)acetamide]: at Human TGFβR-1 kinase (setting [5]), the IC50 is 100 to 800 nM.

With `O=C(Cn1cc(-c2ccnc3ccccc23)c(-c2ccccn2)n1)NCc1c(F)cccc1F` [Example 23, N-(2,6-difluorobenzyl)-2-(3-(pyridin-2-yl)-4-(quinolin-4-yl)-1H-pyrazol-1-yl)acetamide], the half-inhibitory concentration (IC50) on Human TGFβR-1 kinase (setting [5]) was 100 to 800 nM.

As for `Cc1cccc(C)c1CNC(=O)Cn1cc(-c2ccnc3ccccc23)c(-c2ccccn2)n1` [Example 25, N-(2,6-dimethylbenzyl)-2-(3-(pyridin-2-yl)-4-(quinolin-4-yl)-1H-pyrazol-1-yl)acetamide], at Human TGFβR-1 kinase (setting [5]), the 50% inhibitory concentration (IC50) was < 100 nM.

As for `CCc1ccccc1CNC(=O)Cn1cc(-c2ccnc3ccccc23)c(-c2cccc(C)n2)n1` [Example 27, N-(2-ethylbenzyl)-2-(3-(6-methylpyridin-2-yl)-4-(quinolin-4-yl)-1H-pyrazol-1-yl)acetamide], the IC50 on Human TGFβR-1 kinase (setting [5]) and at TGF-beta kinase (ALK-5) (setting [6]) was < 100 nM each time. The “% remanent (sampling time 60 min)” value in data set [3] (60 min) stood at 0.31%; in data set [4] (60 min) it was 0.53%. Besides, the microsomal CLint in data set [3] (rat recombinant microsomes (Tebu-Xenotech), pH 7.4) turned out to be 600 µL/min/mg; in data set [4] (human recombinant microsomes (Tebu-Xenotech)), 505 µL/min/mg.

Regarding `Cc1cccc(-c2nn(CC(=O)NCc3c(Cl)cccc3Cl)cc2-c2ccnc3ccccc23)n1` [Example 28, N-(2,6-dichlorobenzyI)-2-(3-(6-methylpyridin-2-yl)-4-(quinolin-4-yl)-1H-pyrazol-1-yl)acetamide], the IC50 on Human TGFβR-1 kinase (setting [5]) is < 100 nM; at TGF-beta kinase (ALK-5) (setting [6]), 100 to 500 nM.

On to `O=C(Cn1cc(-c2ccnc3ccccc23)c(-c2ccccn2)n1)NCc1ccc(C(=O)O)cc1` [Example 29, 4-((2-(3-(pyridin-2-yl)-4-(quinolin-4-yl)-1H-pyrazol-1-yl)acetamido)methyl)benzoic acid hydrochloride], for which the IC50 on Human TGFβR-1 kinase (setting [5]) fell in the range of 100 to 800 nM.

Values taken from patent US12297186B2, “Benzylamide derivatives as inhibitors of transforming growth factor-beta receptor I/ALK5” (AGOMAB SPAIN, S.L.U., priority 2019, dated 2025).
